Results from PMC6332359, “Insecticidal and Nematicidal Activities of Novel Mimosine Derivatives” (Molecules, 2015).
Where “and” joins values, the source holds several entries; their conditions need not be identical. Equal values may be shown once. Read-outs that look alike come from different tables or passages of the source.

How the values were obtained:
[1] = test system: termites; assay: Topical assay against termites (acute toxicity); type: in vivo; conditions: for LD50 against termites by topical application: worker termites, mortality after 48 h, mean ± SE of four replications; for Insecticidal activity relative to mimosine: higher than mimosine, from Table 1 LD50
Description: An acute toxicity bioassay was performed by topical application to worker termites. A series of seven different doses (0.25, 0.5, 1.5, 2.5, 7.5, 12.5, and 25 μg/termite) was prepared in ethanol solution for each tested sample. Aliquots (0.5 μL) of diluted samples were applied topically to the abdomens of worker termites. Controls were treated with 0.5 μL ethanol only. Termites were transferred into petri dishes (4.2-cm diameter) lined with filter paper and kept in an incubator at 23–25 °C. A few drops of distilled water were supplied daily to the bottom edge of each dish to maintain moisture during the experiment. Four replicates of 20 termites each were used per treatment. Fenitrothion and rotenone were used as positive controls. Mortality of insects was evaluated after 48 h treatment. […] LD50 values were calculated by probit analysis using Graphpad Prism 6.01 (GraphPad, La Jolla, CA, USA).

[2] = test system: termites; assay: No-choice contact assay against termites; type: in vivo; conditions: no-choice contact method, seven days treatment
Description: The no-choice bioassay method as described by Tawata et al. was used to evaluate insecticidal activity. […] Filter paper treated with ethanol and acetone was used as the control. After removing the solvent from treated filter paper by air drying at ambient temperature for 24 h, 20 termites were placed onto each paper. The dishes were covered and placed in incubator at ±23 °C. A few drops of distilled water were supplied daily to the bottom edge of each petri dish to maintain moisture during the experiment. The experiment was performed using four replicates of each treatment and was repeated two times. Mortality was evaluated after seven days treatment. […] Insect mortality rate was calculated as a percentage in comparison with the control group. Rotenone and fenitrothion were used as positive controls.

[3] = target: acetylcholinesterase (AChE) from termite whole bodies; assay: Acetylcholinesterase (AChE) inhibition, modified Ellman's method; type: biochemical, termites; conditions: crude enzyme from termite whole bodies; for IC50: pH 8.0, 25 °C, read-out: IC50 against AChE
Description: Whole bodies of termites (20 mg) were homogenized in 1 mL of 0.1 M phosphate buffer (pH 8.0), and the homogenate was centrifuged at 12,000 rpm for 20 min. The supernatant was used as the enzyme source. All procedural steps for preparing the crude enzyme were performed at 4 °C [26]. The AChE activity was measured using the modified Ellman’s method. Twenty-five microliters of sample was transferred into each well of a 96-well microplate containing 125 μL 0.1 M phosphate buffer (pH 8.0), and 30 μL of the enzyme solution was added to each well. The mixture was incubated for 10 min at 25 °C, after which 50 μL of 5,5′-dithiobis-(2-nitrobenzoic acid) (final concentration 0.4 mM) and 25 μL of acetylthiocholine iodide (final concentration 1 mM) were added. The control was treated by adding 25 μL water. Enzyme activity was measured for 20 min at 412 nm. The AChE inhibition assay was performed using four replicates of each treatment and was repeated two times. The inhibition rate of AChE activity was calculated as a percentage as follows: Inhibition (%) = (Ao − AE)/Ao × 100(1) where Ao is the absorbance of the control, and AE is the absorbance of the tested sample.

[4] = test system: Caenorhabditis elegans; assay: Nematicidal activity assay, 96-well microplate method; type: in vivo
Description: The nematicidal activity assay was conducted according to previously described procedures with minor modifications. The nematode Caenorhabditis elegans was cultivated on nematode growth medium (NGM) [3 g NaCl, 15 g agar, 2.5 g polypeptone, 136.1 g KH2OP4, 17.9 g KOH, 1 mL 1 M MgSO4, 1 mL 1 M CaCl2, 1 mL cholesterol (5 mg/mL), and 500 μL ampicillin (100 μg/mL)] plate covered with Escherichia coli strain OP50. The ampicillin-resistant OP50 was used as a feed source to prevent cross-contamination of the nematode culture. The NGM plates contained high densities of worms after 4 days incubation at 20 °C. For preparation of synchronous worm culture, worms were rinsed from the agar plate with S-basal buffer (5.85 g NaCl, 1 g K2HPO4, 6 g KH2PO4, and 1 mL cholesterol [5 mg/mL ethanol]/L), washed twice with S-basal buffer, and added to household bleach/10 N NaOH solution. The supernatant was shaken for 10–15 min, washed three times by centrifugation for 1 min at 3000 rpm, and then resuspended in S-basal buffer. One hundred microliters of worm/OP50 (1.2 × 10^9 bacteria/mL) solution was transferred into each well of a 96-well plate, and 20 μL sample stock solution was added to give final concentrations 25, 50, 100, 250, and 500 μM. The plate was shaken thoroughly for 2–3 min and incubated at 20 °C. Water was used as a negative control. The experiment was performed using four replicates of each treatment and was repeated two times. Dead and active nematodes were recorded after 48 h treatment. Nematode mortality rate was calculated as a percentage in comparison with the control group.

[5] = read-out: Nematicidal activity IC50, C. elegans, 48 h treatment, 20 °C
[6] = Caenorhabditis elegans, C. elegans, 48 h treatment, 20 °C, read-out: Nematicidal activity IC50

| Compound | LD50 against termites by topical application [1] | Mortality (%) ([2]; 50 μg/mL) | Mortality (%) ([2]; 100 μg/mL) | Mortality (%) ([2]; 250 μg/mL) | IC50 [3] | IC50 [4, 5] | IC50 ([4]; Caenorhabditis elegans, 48 h, read-out: Nematicidal activity IC50, C. elegans, 48 h treatment, 20 °C) | Insecticidal activity relative to mimosine [1] | IC50 [4, 6] | Mortality (%) ([2]; 5 μg/mL) | Mortality (%) ([2]; 10 μg/mL) | Mortality (%) ([2]; 15 μg/mL) | AChE inhibitory activity (in words) [3] |
| --- | --- | --- | --- | --- | --- | --- | --- | --- | --- | --- | --- | --- | --- |
| COP1(=S)N[C@@H](Cn2ccc(=O)c(O)c2)CO1 (stereo partly drawn) [Compound 1a, 3-Hydroxy-1-(((4S)-2-methoxy-2-sulfido-1,3,2-oxazaphospholidin-4-yl)methyl)pyridin-4(1H)-one] | 0.5 μg/insect and 0.5 ± 0.1 fg μg/insect | 52%–62% and 62.5 ± 1.8 a % | 71%–88% and 88.8 ± 0.9 a % | 90.6 ± 1.3 a % | 95.9 µM | 31.8 µM | – | – | – | – | – | – | – |
| CCOP1(=S)N[C@@H](Cn2ccc(=O)c(O)c2)CO1 (stereo partly drawn) [Compound 1b, 1-(((4S)-2-Ethoxy-2-sulfido-1,3,2-oxazaphospholidin-4-yl)methyl)-3-hydroxypyridin-4(1H)-one] | 0.7 μg/insect and 0.7 ± 0.1 ef μg/insect | 52%–62% and 52.5 ± 3.5 ab % | 71%–88% and 71.9 ± 1.3 b % | 84.4 ± 2.2 ab % | 104 µM | 50.2 µM | – | – | – | – | – | – | – |
| CCCOP1(=S)N[C@@H](Cn2ccc(=O)c(O)c2)CO1 (stereo partly drawn) [Compound 1c, 3-Hydroxy-1-(((4S)-2-propoxy-2-sulfido-1,3,2-oxazaphospholidin-4-yl)methyl)pyridin-4(1H)-one] | 0.8 ± 0.1 ef μg/insect | 45.6 ± 0.4 bc % | 59.4 ± 1.3 cd % | 77.5 ± 0.9 b % | – | – | 116 µM | – | – | – | – | – | – |
| COP1(=S)N[C@@H](Cn2ccc(=O)c(O)c2)CO1 (stereo partly drawn) [Compound 2a, 3-Hydroxy-1-(((4S)-2-methoxy-2-sulfido-1,3,2-oxazaphospholidin-4-yl)methyl)pyridin-4(1H)-one] | 1.2 ± 0.2 de μg/insect | 48.8 ± 2.5 bc % | 70.6 ± 0.6 b % | 82.5 ± 1.3 ab % | – | 252 µM | – | – | – | – | – | – | – |
| CCOP1(=S)N[C@@H](Cn2ccc(=O)c(O)c2)CO1 (stereo partly drawn) [Compound 2b, 1-(((4S)-2-ethoxy-2-sulfido-1,3,2-oxazaphospholidin-4-yl)methyl)-3-hydroxypyridin-4(1H)-one] | 2.1 ± 0.4 c μg/insect | 42.5 ± 2.5 bcd % | 52.5 ± 2.5 de % | 63.8 ± 0.0 c % | – | 187 µM | – | – | – | – | – | – | – |
| CCCOP1(=S)N[C@@H](Cn2ccc(=O)c(O)c2)CO1 (stereo partly drawn) [Compound 2c, 3-Hydroxy-1-(((4S)-2-propoxy-2-sulfido-1,3,2-oxazaphospholidin-4-yl)methyl)pyridin-4(1H)-one] | 3.1 ± 0.5 b μg/insect | 29.4 ± 1.9 e % | 44.4 ± 1.9 e % | 52.5 ± 3.8 d % | – | 218 µM | – | – | – | – | – | – | – |
| [2H]C([2H])(O)[C@@H](N)Cn1ccc(=O)c(O)c1 [D-mimosinol, deuterated mimosinol] | 1.8 ± 0.3 d μg/insect | 33.1 ± 1.9 de % | 53.8 ± 3.8 de % | 60.6 ± 0.6 cd % | – | – | – | > 30 times | 390 µM | – | – | – | – |
| COP(=S)(OC)Oc1ccc([N+](=O)[O-])c(C)c1 [Fenitrothion, reference compound] | 0.025 ± 0.0 g μg/insect | – | – | – | 182 µM | – | – | – | – | 26.9 ± 1.3% | 69.4 ± 0.6% | 83.8 ± 1.9% | – |
| NC(Cn1ccc(=O)c(O)c1)C(=O)O (stereo not drawn) [Mimosine, β-[N-(3-hydroxy-4-oxypyridyl)]-α-aminopropionic acid] | 54.1 ± 5.9 a μg/insect | 2.5 ± 1.1 f % | 7.5 ± 1.0 f % | 9.1 ± 2.0 e % | 1530 µM | – | – | – | 16.8 µM | – | – | – | not active |
| N[C@H](CO)Cn1ccc(=O)c(O)c1 [Mimosinol, mimosinol] | 1.2 ± 0.2 de μg/insect | 38.1 ± 1.3 cde % | 52.5 ± 2.7 de % | 68.5 ± 0.6 c % | – | – | – | > 30 times | 376 µM | – | – | – | – |
| C=C(C)[C@H]1Cc2c(ccc3c2O[C@@H]2COc4cc(OC)c(OC)cc4[C@@H]2C3=O)O1 [Rotenone, rotenone, reference compound] | 0.8 ± 0.2 ef μg/insect | 48.8 ± 0.9 bc % | 68.1 ± 1.3 bc % | 80.0 ± 0.9 b % | – | – | – | – | – | – | – | – | – |
| O=c1cc(CO)occ1O [kojic acid] | – | – | – | – | 5480 µM | – | – | – | 328 µM | – | – | – | not active |
